Measurements as given in the NIST ThermoML archive (doi:10.1016/j.tca.2015.08.007).
Numbers after ± are expanded uncertainties.

| Structure (SMILES) | Triple point temperature (Liquid crystal of unknown type) | Triple point temperature (Nematic liquid crystal) |
| --- | --- | --- |
| CCCCCCCCCCOc1cc(C=NNC(=O)c2ccc(N=Cc3cc(OCCCCCCCCCC)c(OCCCCCCCCCC)c(OCCCCCCCCCC)c3)cc2)cc(OCCCCCCCCCC)c1OCCCCCCCCCC | 385.85 ± 2 K | – |
| CCCCCOc1ccc(-c2ccc(C#N)cc2)cc1 [4'-pentoxy-4-cyanobiphenyl] | – | 339.75 ± 2 K |
